Reference: ChEMBL document CHEMBL1255386, “Early viral kinetics of telbivudine and entecavir: results of a 12-week randomized exploratory study with patients with HBeAg-positive chronic hepatitis B” (Antimicrob Agents Chemother, 2010)

Columns and labels:
[1] = species on record: Homo sapiens; experiment: Toxicity in HBeAg-positive chronic hepatitis B patient assessed as vomiting at 600 mg/day; format: organism-based; conditions: in vivo
[2] = species on record: Homo sapiens; experiment: Toxicity in HBeAg-positive chronic hepatitis B patient assessed as dyspnea at 600 mg/day; format: organism-based; conditions: in vivo
[3] = test system: Hepatitis B virus; experiment: Antiviral activity against Hepatitis B virus in HBeAg-positive chronic hepatitis B patient assessed as mean rate of infected cell loss at 600 mg/day; format: functional
[4] = species on record: Homo sapiens; experiment: Toxicity in HBeAg-positive chronic hepatitis B patient assessed as proteinuria at 600 mg/day; format: organism-based; conditions: in vivo
[5] = species on record: Homo sapiens; experiment: Toxicity in HBeAg-positive chronic hepatitis B patient assessed as insomnia at 600 mg/day; format: organism-based; conditions: in vivo
[6] = species on record: Homo sapiens; experiment: Toxicity in HBeAg-positive chronic hepatitis B patient assessed as peripheral neuropathy at 600 mg/day; format: organism-based; conditions: in vivo
[7] = species on record: Homo sapiens; experiment: Toxicity in HBeAg-positive chronic hepatitis B patient assessed as myalgia at 600 mg/day; format: organism-based; conditions: in vivo
[8] = species on record: Homo sapiens; experiment: Toxicity in HBeAg-positive chronic hepatitis B patient assessed as gingival bleeding at 600 mg/day; format: organism-based; conditions: in vivo
[9] = species on record: Homo sapiens; experiment: Toxicity in HBeAg-positive chronic hepatitis B patient assessed as increase in AST level at 600 mg/day; format: organism-based; conditions: in vivo
[10] = species on record: Homo sapiens; experiment: Toxicity in HBeAg-positive chronic hepatitis B patient assessed as hyperphosphatemia at 600 mg/day; format: organism-based; conditions: in vivo
[11] = species on record: Homo sapiens; experiment: Toxicity in HBeAg-positive chronic hepatitis B patient assessed as increase in ALT level at 600 mg/day; format: organism-based; conditions: in vivo
[12] = test system: Hepatitis B virus; experiment: Antiviral activity against Hepatitis B virus in HBeAg-positive chronic hepatitis B patient assessed as mean efficiency factor of blocking virus production at 600 mg/day; format: functional
[13] = species on record: Homo sapiens; experiment: Toxicity in HBeAg-positive chronic hepatitis B patient assessed as neutropenia at 600 mg/day; format: organism-based; conditions: in vivo
[14] = species on record: Homo sapiens; experiment: Toxicity in HBeAg-positive chronic hepatitis B patient assessed as hordeolum at 600 mg/day; format: organism-based; conditions: in vivo
[15] = test system: Hepatitis B virus; experiment: Antiviral activity against Hepatitis B virus in HBeAg-positive chronic hepatitis B patient assessed as mean viral clearance rate at 600 mg/day; format: functional
[16] = species on record: Homo sapiens; experiment: Toxicity in HBeAg-positive chronic hepatitis B patient assessed as vaginal hemorrhage at 600 mg/day; format: organism-based; conditions: in vivo
[17] = species on record: Homo sapiens; experiment: Toxicity in HBeAg-positive chronic hepatitis B patient assessed as thrombocytopenia at 600 mg/day; format: organism-based; conditions: in vivo
[18] = species on record: Homo sapiens; experiment: Toxicity in HBeAg-positive chronic hepatitis B patient assessed as muscular weakness at 600 mg/day; format: organism-based; conditions: in vivo
[19] = species on record: Homo sapiens; experiment: Toxicity in HBeAg-positive chronic hepatitis B patient assessed as conjunctival hypermia at 600 mg/day; format: organism-based, Conjunctiva; conditions: in vivo
[20] = species on record: Homo sapiens; experiment: Toxicity in HBeAg-positive chronic hepatitis B patient assessed as upper respiratory tract infection at 600 mg/day; format: organism-based; conditions: in vivo
[21] = test system: Hepatitis B virus; experiment: Antiviral activity against Hepatitis B virus in HBeAg-positive chronic hepatitis B patient assessed as HBV DNA level in serum at 0.5 mg/day after 12 weeks (reference value: 9.72 log10copies/ml); format: functional
[22] = species on record: Homo sapiens; experiment: Toxicity in HBeAg-positive chronic hepatitis B patient assessed as chest discomfort at 600 mg/day; format: organism-based; conditions: in vivo
[23] = species on record: Homo sapiens; experiment: Hepatotoxicity in HBeAg-positive chronic hepatitis B patient assessed as reduction in alanine aminotransferase level at 600 mg/day after 12 weeks (reference value: 163.1 IU/liter); format: toxicity, organism-based; conditions: in vivo, 2016 h
[24] = species on record: Homo sapiens; experiment: Toxicity in HBeAg-positive chronic hepatitis B patient assessed as nasophayngitis at 600 mg/day; format: organism-based; conditions: in vivo
[25] = species on record: Homo sapiens; experiment: Toxicity in HBeAg-positive chronic hepatitis B patient assessed as nausea at 600 mg/day; format: organism-based; conditions: in vivo
[26] = species on record: Homo sapiens; experiment: Toxicity in HBeAg-positive chronic hepatitis B patient assessed as upper abdominal pain at 600 mg/day; format: organism-based, Abdomen; conditions: in vivo
[27] = species on record: Homo sapiens; experiment: Toxicity in HBeAg-positive chronic hepatitis B patient assessed as myringitis at 600 mg/day; format: organism-based; conditions: in vivo
[28] = species on record: Homo sapiens; experiment: Toxicity in HBeAg-positive chronic hepatitis B patient assessed as headache at 600 mg/day; format: organism-based; conditions: in vivo
[29] = test system: Homo sapiens; experiment: Toxicity in HBeAg-positive chronic hepatitis B patient assessed as facial edema at 600 mg/day; format: organism-based; conditions: in vivo
[30] = species on record: Homo sapiens; experiment: Toxicity in HBeAg-positive chronic hepatitis B patient assessed as abdominal discomfort at 600 mg/day; format: organism-based, Abdomen; conditions: in vivo
[31] = species on record: Homo sapiens; experiment: Toxicity in HBeAg-positive chronic hepatitis B patient assessed as increase in blood CK level at 600 mg/day; format: organism-based; conditions: in vivo
[32] = test system: Hepatitis B virus; experiment: Antiviral activity against Hepatitis B virus in HBeAg-positive chronic hepatitis B patient assessed as mean rate of infected cell loss at 0.5 mg/day; format: functional
[33] = species on record: Homo sapiens; experiment: Toxicity in HBeAg-positive chronic hepatitis B patient assessed as dyspnea at 0.5 mg/day; format: organism-based; conditions: in vivo
[34] = test system: Hepatitis B virus; experiment: Antiviral activity against Hepatitis B virus in HBeAg-positive chronic hepatitis B patient assessed as mean viral clearance rate at 0.5 mg/day; format: functional
[35] = test system: Hepatitis B virus; experiment: Antiviral activity against Hepatitis B virus in HBeAg-positive chronic hepatitis B patient assessed as HBV DNA level in serum at 600 mg/day after 12 weeks (reference value: 10.29 log10copies/ml); format: functional
[36] = species on record: Homo sapiens; experiment: Toxicity in HBeAg-positive chronic hepatitis B patient assessed as vomiting at 0.5 mg/day; format: organism-based; conditions: in vivo
[37] = species on record: Homo sapiens; experiment: Toxicity in HBeAg-positive chronic hepatitis B patient assessed as nausea at 0.5 mg/day; format: organism-based; conditions: in vivo
[38] = species on record: Homo sapiens; experiment: Toxicity in HBeAg-positive chronic hepatitis B patient assessed as upper respiratory tract infection at 0.5 mg/day; format: organism-based; conditions: in vivo
[39] = species on record: Homo sapiens; experiment: Toxicity in HBeAg-positive chronic hepatitis B patient assessed as abdominal discomfort at 0.5 mg/day; format: organism-based, Abdomen; conditions: in vivo
[40] = species on record: Homo sapiens; experiment: Toxicity in HBeAg-positive chronic hepatitis B patient assessed as conjunctival hypermia at 0.5 mg/day; format: organism-based, Conjunctiva; conditions: in vivo
[41] = species on record: Homo sapiens; experiment: Hepatotoxicity in HBeAg-positive chronic hepatitis B patient assessed as reduction in alanine aminotransferase level at 0.5 mg/day after 12 weeks (reference value: 170.2 IU/liter); format: toxicity, organism-based; conditions: in vivo, 2016 h
[42] = test system: Hepatitis B virus; experiment: Antiviral activity against Hepatitis B virus in HBeAg-positive chronic hepatitis B patient assessed as mean efficiency factor of blocking virus production at 0.5 mg/day; format: functional
[43] = species on record: Homo sapiens; experiment: Toxicity in HBeAg-positive chronic hepatitis B patient assessed as muscular weakness at 0.5 mg/day; format: organism-based; conditions: in vivo
[44] = species on record: Homo sapiens; experiment: Toxicity in HBeAg-positive chronic hepatitis B patient assessed as increase in AST level at 0.5 mg/day; format: organism-based; conditions: in vivo
[45] = species on record: Homo sapiens; experiment: Toxicity in HBeAg-positive chronic hepatitis B patient assessed as hordeolum at 0.5 mg/day; format: organism-based; conditions: in vivo
[46] = species on record: Homo sapiens; experiment: Toxicity in HBeAg-positive chronic hepatitis B patient assessed as chest discomfort at 0.5 mg/day; format: organism-based; conditions: in vivo
[47] = species on record: Homo sapiens; experiment: Toxicity in HBeAg-positive chronic hepatitis B patient assessed as peripheral neuropathy at 0.5 mg/day; format: organism-based; conditions: in vivo
[48] = test system: Homo sapiens; experiment: Toxicity in HBeAg-positive chronic hepatitis B patient assessed as facial edema at 0.5 mg/day; format: organism-based; conditions: in vivo
[49] = species on record: Homo sapiens; experiment: Toxicity in HBeAg-positive chronic hepatitis B patient assessed as upper abdominal pain at 0.5 mg/day; format: organism-based, Abdomen; conditions: in vivo
[50] = species on record: Homo sapiens; experiment: Toxicity in HBeAg-positive chronic hepatitis B patient assessed as hyperphosphatemia at 0.5 mg/day; format: organism-based; conditions: in vivo
[51] = species on record: Homo sapiens; experiment: Toxicity in HBeAg-positive chronic hepatitis B patient assessed as insomnia at 0.5 mg/day; format: organism-based; conditions: in vivo
[52] = species on record: Homo sapiens; experiment: Toxicity in HBeAg-positive chronic hepatitis B patient assessed as myringitis at 0.5 mg/day; format: organism-based; conditions: in vivo
[53] = species on record: Homo sapiens; experiment: Toxicity in HBeAg-positive chronic hepatitis B patient assessed as myalgia at 0.5 mg/day; format: organism-based; conditions: in vivo
[54] = species on record: Homo sapiens; experiment: Toxicity in HBeAg-positive chronic hepatitis B patient assessed as neutropenia at 0.5 mg/day; format: organism-based; conditions: in vivo
[55] = species on record: Homo sapiens; experiment: Toxicity in HBeAg-positive chronic hepatitis B patient assessed as vaginal hemorrhage at 0.5 mg/day; format: organism-based; conditions: in vivo
[56] = species on record: Homo sapiens; experiment: Toxicity in HBeAg-positive chronic hepatitis B patient assessed as gingival bleeding at 0.5 mg/day; format: organism-based; conditions: in vivo
[57] = species on record: Homo sapiens; experiment: Toxicity in HBeAg-positive chronic hepatitis B patient assessed as thrombocytopenia at 0.5 mg/day; format: organism-based; conditions: in vivo
[58] = species on record: Homo sapiens; experiment: Toxicity in HBeAg-positive chronic hepatitis B patient assessed as headache at 0.5 mg/day; format: organism-based; conditions: in vivo
[59] = species on record: Homo sapiens; experiment: Toxicity in HBeAg-positive chronic hepatitis B patient assessed as increase in ALT level at 0.5 mg/day; format: organism-based; conditions: in vivo
[60] = species on record: Homo sapiens; experiment: Toxicity in HBeAg-positive chronic hepatitis B patient assessed as nasophayngitis at 0.5 mg/day; format: organism-based; conditions: in vivo
[61] = species on record: Homo sapiens; experiment: Toxicity in HBeAg-positive chronic hepatitis B patient assessed as proteinuria at 0.5 mg/day; format: organism-based; conditions: in vivo
[62] = species on record: Homo sapiens; experiment: Toxicity in HBeAg-positive chronic hepatitis B patient assessed as increase in blood CK level at 0.5 mg/day; format: organism-based; conditions: in vivo

## Cc1cn([C@@H]2C[C@@H](O)[C@H](CO)O2)c(=O)[nH]c1=O [TELBIVUDINE]
[1]
  Activity: 0%
[2]
  Activity: 1%
[3]
  Activity: 0.075 day⁻¹
[4]
  Activity: 0%
[5]
  Activity: 0%
[6]
  Activity: Non-toxic
[7]
  Activity: 1%
[8]
  Activity: 1%
[9]
  Activity: 1%
[10]
  Activity: 1%
[11]
  Activity: 3%
[12]
  Activity: 99.1%
[13]
  Activity: 1%
[14]
  Activity: 0%
[15]
  Activity: 0.809 day⁻¹
[16]
  Activity: 0%
[17]
  Activity: 1%
[18]
  Activity: Non-toxic
[19]
  Activity: 1%
[20]
  Activity: 1%
[21]
  Activity: 6.6
[22]
  Activity: 1%
[23]
  Activity: 108 IU/L
[24]
  Activity: 0%
[25]
  Activity: 0%
[26]
  Activity: 1%
[27]
  Activity: 0%
[28]
  Activity: 0%
[29]
  Activity: 0%
[30]
  Activity: 1%
[31]
  Activity: 0%

## C=C1[C@H](CO)[C@@H](O)C[C@@H]1n1cnc2c(=O)[nH]c(N)nc21.O [ENTECAVIR]
[32]
  Activity: 0.071 day⁻¹
[33]
  Activity: 0%
[34]
  Activity: 1.002 day⁻¹
[35]
  Activity: 6.5
[36]
  Activity: 1%
[37]
  Activity: 2%
[38]
  Activity: 2%
[39]
  Activity: 0%
[40]
  Activity: 0%
[41]
  Activity: 116.3 IU/L
[42]
  Activity: 99.2%
[43]
  Activity: Non-toxic
[44]
  Activity: 0%
[45]
  Activity: 1%
[46]
  Activity: 1%
[47]
  Activity: Non-toxic
[48]
  Activity: 1%
[49]
  Activity: 0%
[50]
  Activity: 0%
[51]
  Activity: 1%
[52]
  Activity: 1%
[53]
  Activity: 0%
[54]
  Activity: 0%
[55]
  Activity: 1%
[56]
  Activity: 0%
[57]
  Activity: 0%
[58]
  Activity: 1%
[59]
  Activity: 1%
[60]
  Activity: 1%
[61]
  Activity: 1%
[62]
  Activity: 3 patients
